The record followed here is PubChem BioAssay (NCI).

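Grown in 96-well plates, cells were treated for 48 hours with each compound at five concentrations. Insufficient inhibition: endpoint recorded as highest concentration tested. GI50 = concentration required for 50% inhibition of growth. TGI is the concentration that stops growth completely.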

Among the test systems are OVCAR-4 ovarian; A498 renal; SK-MEL-28 melanoma; DU-145 prostate; LOX IMVI melanoma; SW-620 colon; K-562 leukemia; HS 578T breast.
Common to all, as to test: growth of human tumour cells (NCI), 48 h

Take `C/C(=C\c1csc(C)n1)[C@@H]1C[C@@H]2O[C@]2(C)CCC[C@H](C)[C@H](O)[C@@H](C)C(=O)C(C)(C)[C@@H](O)CC(=O)N1`: the GI50 was 0.000318 µM in the test on OVCAR-4 ovarian; 0.000104 µM with A498 renal; 0.000219 µM with SK-MEL-28 melanoma; 0.000166 µM with DU-145 prostate; 0.00012 µM in the test on LOX IMVI melanoma; 0.00016 µM in the test on SW-620 colon. Moreover, the GI50 was 0.000106 µM in the test with K-562 leukemia and 8.61e-05 µM in the test with HS 578T breast. The TGI with OVCAR-4 ovarian was determined as 0.000821 µM; in the test on A498 renal, 0.000215 µM; in the test on SK-MEL-28 melanoma, 0.000436 µM; with DU-145 prostate, 0.000254 µM; in the test on LOX IMVI melanoma, 0.000226 µM; in the test with SW-620 colon it was 0.00042 µM. In addition, the TGI in the test on K-562 leukemia was 0.00033 µM; with HS 578T breast it was 0.000226 µM.

On to `CN(C)CCCC1(c2ccc(F)cc2)OCc2cc(-c3csc4ccccc34)ccc21` (stereo not drawn), for which the GI50 is 1.68 µM in the test with OVCAR-4 ovarian; 1.68 µM with SK-MEL-28 melanoma; 1.72 µM with DU-145 prostate; 1.65 µM in the test on LOX IMVI melanoma; 1.63 µM with SW-620 colon; 1.72 µM with K-562 leukemia. Besides, the GI50 with HS 578T breast is 1.74 µM. The TGI in the test with OVCAR-4 ovarian was 3.28 µM; in the test on SK-MEL-28 melanoma it was 3.07 µM; in the test with DU-145 prostate, 3.15 µM; with LOX IMVI melanoma, 3.16 µM; in the test on SW-620 colon, 3.22 µM; in the test with K-562 leukemia it was 3.45 µM. The TGI with HS 578T breast was 3.76 µM.

For `COc1cc(/C=C/C(=O)c2nc3cc(F)ccc3nc2C)cc(OC)c1OC`, the GI50 in the test on OVCAR-4 ovarian was above 40.7 µM; in the test with A498 renal, 5.78 µM; with SK-MEL-28 melanoma it was 7.91 µM; with DU-145 prostate, 3.09 µM; in the test on LOX IMVI melanoma, 2.84 µM; in the test with SW-620 colon, 5.34 µM. In addition, the figures for the GI50 with K-562 leukemia and in the test on HS 578T breast were 2.01 µM and 5.34 µM, respectively. The TGI in the test on OVCAR-4 ovarian is above 100 µM; in the test on A498 renal, above 100 µM; with SK-MEL-28 melanoma it was above 60.3 µM; with DU-145 prostate, above 100 µM; with LOX IMVI melanoma, above 22.1 µM; in the test on SW-620 colon, above 100 µM. The results for the TGI in the test with K-562 leukemia and in the test with HS 578T breast were above 23.9 µM and above 100 µM, respectively.

As for `CC1(C)CC2=NO[Se]3=C2C(=NO3)C1`, the TGI with OVCAR-4 ovarian was determined as 21.7 µM; in the test with A498 renal it was 10.4 µM; in the test on SK-MEL-28 melanoma, 16.6 µM; in the test on DU-145 prostate, 10.4 µM; in the test with LOX IMVI melanoma, 9.39 µM; with SW-620 colon it was 12.3 µM. Also, the figures for the TGI in the test on K-562 leukemia and with HS 578T breast were 12.4 µM and 33.1 µM, respectively.

For the compound `COc1cc(NC(=O)COc2ccccc2)c(C(N)=O)cc1OC`, the GI50 with OVCAR-4 ovarian is above 100 µM; in the test on A498 renal it was 2.77 µM; in the test with SK-MEL-28 melanoma it was 24.2 µM; in the test on DU-145 prostate it was 0.914 µM; in the test with LOX IMVI melanoma, 1.81 µM; in the test on SW-620 colon, 0.646 µM. Moreover, the GI50 in the test on K-562 leukemia was 0.31 µM; with HS 578T breast, 0.771 µM. Besides, the TGI is above 100 µM in the test on OVCAR-4 ovarian; 15.4 µM in the test with A498 renal; above 100 µM in the test with SK-MEL-28 melanoma; above 100 µM with DU-145 prostate; above 100 µM with LOX IMVI melanoma; above 100 µM in the test on SW-620 colon. The TGI is above 100 µM in the test on K-562 leukemia and 26.9 µM in the test with HS 578T breast.

`CC(C)c1ccc2c(c1)CCC1C2CCCC1(C)NCc1ccccc1` (stereo not drawn): the GI50 was 7.26 µM with OVCAR-4 ovarian; 11.5 µM in the test with A498 renal; 1.98 µM in the test with SK-MEL-28 melanoma; 8.61 µM with DU-145 prostate; 2.27 µM in the test with LOX IMVI melanoma; 2.17 µM with SW-620 colon. The GI50 in the test with K-562 leukemia was 1.46 µM; in the test with HS 578T breast, 4.99 µM. Moreover, the TGI in the test on OVCAR-4 ovarian was found to be 19.8 µM; in the test on A498 renal, 24.5 µM; with SK-MEL-28 melanoma it was 3.83 µM; in the test on DU-145 prostate, 24.3 µM; in the test with LOX IMVI melanoma it was 7.12 µM; in the test on SW-620 colon it was 6.1 µM. In addition, the TGI came to 10.9 µM in the test on K-562 leukemia and 23.7 µM in the test with HS 578T breast.

In the case of `COc1ccc(-c2c(Nc3ccccn3)nc3c(C4=CCCCC4)c(-c4ccccc4)[nH]n3c2=O)cc1`, the GI50 with OVCAR-4 ovarian was 2.31 µM; with A498 renal it was 2.01 µM; with SK-MEL-28 melanoma it was 4.55 µM; in the test with DU-145 prostate it was 3.62 µM; with LOX IMVI melanoma, 1.8 µM; in the test with SW-620 colon, 3.07 µM. In the test with HS 578T breast, the GI50 was 3.32 µM. For the same compound, the TGI in the test with OVCAR-4 ovarian was above 100 µM; in the test with A498 renal it was 15.4 µM; with SK-MEL-28 melanoma, above 100 µM; with DU-145 prostate, above 100 µM; in the test with LOX IMVI melanoma, above 100 µM; in the test on SW-620 colon it was above 100 µM. In addition, the TGI in the test on HS 578T breast worked out at 33.1 µM.

As for `CCN1CCN(CC(=O)Nc2nc3ccc(NCc4ccc(Br)cc4)cc3s2)CC1`, the GI50 in the test with OVCAR-4 ovarian is 3.19 µM; in the test on A498 renal, 1.76 µM; in the test with SK-MEL-28 melanoma, 1.92 µM; in the test with DU-145 prostate, 5.14 µM; with HS 578T breast, 1.77 µM. In addition, the TGI was 26.8 µM with OVCAR-4 ovarian; 3.46 µM in the test with A498 renal; 3.76 µM with SK-MEL-28 melanoma; above 100 µM in the test on DU-145 prostate; 4.81 µM in the test with HS 578T breast.

`NS(=O)(=O)c1cc2c(cc1Cl)NCNS2(=O)=O`: the TGI with OVCAR-4 ovarian, with SK-MEL-28 melanoma, in the test on DU-145 prostate, in the test with LOX IMVI melanoma, in the test on SW-620 colon and in the test with K-562 leukemia was above 100 µM each time. Besides, in the test with HS 578T breast, the TGI is above 100 µM.

`O=C(O)c1cn(C2CC2)c2cc(N3CCN(C(=O)N(c4ccccc4)c4nc(-c5ccccc5)cs4)CC3)c(F)cc2c1=O`: the GI50 with OVCAR-4 ovarian is 0.526 µM; with A498 renal, 0.028 µM; in the test with SK-MEL-28 melanoma, 0.687 µM; in the test with DU-145 prostate, 0.521 µM; with HS 578T breast, 0.393 µM. In addition, the TGI in the test on OVCAR-4 ovarian was above 100 µM; in the test with A498 renal, 0.688 µM; with SK-MEL-28 melanoma it was above 100 µM; with DU-145 prostate, above 100 µM; in the test on HS 578T breast, above 100 µM.

As for `O=[N+]([O-])c1ccc(/C=C(/c2ccc([N+](=O)[O-])o2)S(=O)(=O)c2ccccc2)cc1`, the TGI with OVCAR-4 ovarian, with SK-MEL-28 melanoma, with DU-145 prostate, in the test with SW-620 colon, in the test on K-562 leukemia and in the test with HS 578T breast was above 100 µM each time.
